Results: the NIST ThermoML archive (doi:10.1021/je800159w)

Tests used:
[1] = refractive index (Na D-line) (dimensionless); details: 101.33 kPa, Liquid, Standard Abbe refractometry
[2] = Liquid
[3] = xn = mol fraction of the nth substance listed; details: 101 kPa, Liquid
[4] = refractive index (Na D-line) (dimensionless); xn = mol fraction of the nth substance listed; details: 298.15 K, 101 kPa, Liquid, Standard Abbe refractometry

CCOS(=O)(=O)[O-].CC[n+]1cccc(C)c1 [1-ethyl-3-methylpyridinium ethylsulfate]
[1]
Details | refractive index
298.15 K | 1.50666
303.15 K | 1.50525
308.15 K | 1.50386
313.15 K | 1.50246
318.15 K | 1.50106
323.15 K | 1.49965
328.15 K | 1.49825
333.15 K | 1.49683
338.15 K | 1.4954
343.15 K | 1.49361

[2], 101.33 kPa
Details | mass density [kg/m3] | viscosity [mPa·s]
298.15 K | 1222.26 | 161.4
303.15 K | 1219.02 | 123.6
308.15 K | 1215.78 | 96.9
313.15 K | 1212.54 | 77.1
318.15 K | 1209.39 | 62.2
323.15 K | 1206.13 | 50.55
328.15 K | 1202.86 | 42.32
333.15 K | 1199.63 | 35.52
338.15 K | 1196.43 | 30.11
343.15 K | 1193.25 | 25.69

CCOS(=O)(=O)[O-].CC[n+]1cccc(C)c1 [1-ethyl-3-methylpyridinium ethylsulfate] + CCO
[3]
Details | mass density, 298.15 K [kg/m3] | mass density, 313.15 K [kg/m3] | mass density, 328.15 K [kg/m3] | viscosity, 298.15 K [mPa·s] | viscosity, 313.15 K [mPa·s] | viscosity, 328.15 K [mPa·s]
x2 = 0.0609 | 1214.93 | 1205.03 | 1195.2 | 116.7 | 55.2 | 31.2
x2 = 0.1108 | 1208.33 | 1198.38 | 1188.52 | 96.9 | 48.57 | 28.12
x2 = 0.2066 | 1193.93 | 1183.86 | 1173.91 | 68 | 36.25 | 21.86
x2 = 0.3083 | 1175.71 | 1165.53 | 1155.46 | 45.35 | 25.91 | 16.41
x2 = 0.4004 | 1155.73 | 1145.51 | 1135.36 | 31.11 | 18.88 | 12.52
x2 = 0.4998 | 1129.53 | 1119.07 | 1108.74 | 20.04 | 12.92 | 8.971
x2 = 0.6034 | 1094.96 | 1084.3 | 1073.73 | 12.17 | 8.317 | 6.023
x2 = 0.7034 | 1051.68 | 1040.72 | 1029.83 | 7.452 | 5.332 | 3.99
x2 = 0.8452 | 961.67 | 950.09 | 938.48 | 3.322 | 2.502 | 1.943
x2 = 0.9389 | 870.77 | 858.52 | 846.1 | 1.812 | 1.388 | 1.086

[4]
Details | refractive index
x2 = 0.0609 | 1.50392
x2 = 0.1108 | 1.50181
x2 = 0.2066 | 1.4973
x2 = 0.3083 | 1.49126
x2 = 0.4004 | 1.48469
x2 = 0.4998 | 1.476
x2 = 0.6034 | 1.46448
x2 = 0.7034 | 1.45003
x2 = 0.8452 | 1.41977
x2 = 0.9389 | 1.38864

CCO [ethanol] + CCOS(=O)(=O)[O-].CC[n+]1cccc(C)c1
[3], x1 = 1
Details | mass density [kg/m3] | viscosity [mPa·s]
298.15 K | 785.46 | 1.082
313.15 K | 772 | 0.827
328.15 K | 758.55 | 0.641

Details | refractive index
[4], x1 = 1 | 1.36023

CCO [ethanol]
Details | refractive index
[1], 298.15 K | 1.36023

[2], 101 kPa
Details | mass density [kg/m3] | viscosity [mPa·s]
298.15 K | 785.46 | 1.082
313.15 K | 772 | 0.827
328.15 K | 758.55 | 0.641

CCOS(=O)(=O)[O-].CC[n+]1cccc(C)c1 [1-ethyl-3-methylpyridinium ethylsulfate] + O
[3]
Details | mass density, 298.15 K [kg/m3] | mass density, 313.15 K [kg/m3] | mass density, 328.15 K [kg/m3] | viscosity, 298.15 K [mPa·s] | viscosity, 313.15 K [mPa·s] | viscosity, 328.15 K [mPa·s]
x2 = 0.0526 | 1221.69 | 1211.82 | 1202.02 | 127.6 | 60.5 | 34.93
x2 = 0.1412 | 1220.12 | 1210.22 | 1200.35 | 102.1 | 50.28 | 29.83
x2 = 0.2445 | 1217.8 | 1207.83 | 1198.02 | 77.9 | 39.91 | 23.49
x2 = 0.3233 | 1215.58 | 1205.62 | 1195.72 | 62.3 | 32.92 | 19.76
x2 = 0.4174 | 1212.21 | 1202.21 | 1192.23 | 46.87 | 24.86 | 15.51
x2 = 0.4972 | 1208.39 | 1198.31 | 1188.24 | 36.11 | 20.36 | 12.78
x2 = 0.588 | 1202.53 | 1192.32 | 1182.14 | 26.83 | 15.52 | 9.894
x2 = 0.6975 | 1191.35 | 1180.92 | 1170.42 | 17.72 | 10.5 | 6.847
x2 = 0.7928 | 1174.05 | 1163.41 | 1152.61 | 11.18 | 6.778 | 4.508
x2 = 0.9005 | 1129.44 | 1119.24 | 1108.66 | 4.927 | 3.161 | 2.197
x2 = 0.9484 | 1086.2 | 1077.5 | 1068 | 2.717 | 1.818 | 1.315

[4]
Details | refractive index
x2 = 0.0526 | 1.50583
x2 = 0.1412 | 1.50427
x2 = 0.2445 | 1.50193
x2 = 0.3233 | 1.49986
x2 = 0.4174 | 1.49685
x2 = 0.4972 | 1.49329
x2 = 0.588 | 1.48806
x2 = 0.6975 | 1.47838
x2 = 0.7928 | 1.46398
x2 = 0.9005 | 1.42959
x2 = 0.9484 | 1.39796
